Reference: patent US8802678B2, “Carbonylated (aza) cyclohexanes as dopamine D3 receptor ligands” (Bioprojet, priority 2006, dated 2014)
Counter-ions that a name gives are not always drawn.

Structure (SMILES)	melting point [°C]
CC(=O)CN1CCC(CCN2CCN(c3ccc(Cl)c(C(F)(F)F)c3)CC2)CC1.Cl.Cl	263
COCC(=O)N1CCC(CCN2CCN(c3cccc(C(F)(F)F)c3)CC2)CC1.Cl	150
COc1cccc(N2CCN(CC[C@H]3CC[C@H](NC(=O)CC#N)CC3)CC2)c1.Cl	219
CCOCC(=O)N[C@H]1CC[C@H](CCN2CCN(c3ccccc3Cl)CC2)CC1 [Example 132, N-(4-{2-[4-(2-Chlorophenyl)-piperazin-1-yl]ethyl}cyclohexyl)-2-ethoxyacetamide]	108
CCOCC(=O)N[C@H]1CC[C@H](CCN2CCN(c3cccc(Cl)c3C)CC2)CC1 [Example 137, N-(4-{2-[4-(3-Chloro-2-methylphenyl)piperazin-1-yl]ethyl}cyclohexyl)-2-ethoxyacetamide]	143
CCOCC(=O)N[C@H]1CC[C@H](CCN2CC=C(c3ccc(F)cc3)CC2)CC1	122
CC(=O)CN1CCC(CCN2CC=C(c3cccc(C)c3C)CC2)CC1.Cl.Cl	310
CC(=O)C(=O)N1CCC(CCN2CCN(c3cccc(Cl)c3Cl)CC2)CC1.Cl	244
COCC(=O)N[C@H]1CC[C@H](CCN2CCN(c3ccccc3OC)CC2)CC1 [Example 125, 2-Methoxy-N-(4-{2-[4-(2-methoxyphenyl)piperazin-1-yl]ethyl}cyclohexyl)acetamide]	125 to 126
N#CCC(=O)CN1CCC(CCN2CCN(c3cccc(C(F)(F)F)c3)CC2)CC1 (as salt: hydrochloride)	160
CC(=O)CN1CCC(CCN2CCN(c3ccccc3C(C)C)CC2)CC1.Cl.Cl	260
N#CCC(=O)N[C@H]1CC[C@H](CCN2CC=C(c3cc(C(F)(F)F)cc(C(F)(F)F)c3)CC2)CC1	174
O=C(N[C@H]1CC[C@H](CCN2CCN(c3cccc(C(F)(F)F)c3)CC2)CC1)C1=CCCCC1 [Example 53, Cyclohex-1-enecarboxylic acid (4-{2-[4-(3-trifluoromethylphenyl)-piperazin-1-yl]ethyl}cyclohexyl)-amide]	175
CCc1cccc(C2=CCN(CC[C@H]3CC[C@H](NC(=O)CCCC#N)CC3)CC2)c1	147
CC(C)(C)c1cc(N2CCN(CC[C@H]3CC[C@H](NC(=O)CC#N)CC3)CC2)nc(C(C)(C)C)n1 [Example 111, 2-Cyano-N-(4-{2-[4-(2,6-di-tert-butylpyrimidin-4-yl)piperazin-1-yl]ethyl}cyclohexyl)acetamide trans/cis 65/35]	145
CC(=O)CN1CCC(CCN2CCN(c3cccc4c3CCCCC4)CC2)CC1.Cl.Cl	300
Cl.N#CCCCC(=O)N[C@H]1CC[C@H](CCN2CCN(c3ccccc3C(F)(F)F)CC2)CC1	248
CC(=O)CN1CCC(CCN2CCN(c3cccc(C)c3C)CC2)CC1.Cl.Cl	290
CCc1ccccc1C1=CCN(CC[C@H]2CC[C@H](NC(=O)CCCC#N)CC2)CC1	120
COc1ccc(Cl)c(N2CCN(CCC3CCN(CC(C)=O)CC3)CC2)c1.Cl.Cl	263
N#CCC(=O)N[C@H]1CC[C@H](CCN2CC=C(c3cccc(C(F)(F)F)c3)CC2)CC1	149
N#CCC(=O)N[C@H]1CC[C@H](CCN2CCN(c3cc(C(F)(F)F)cc(C(F)(F)F)c3)CC2)CC1 [Example 107, N-(4-{2-[4-(3,5-Bistrifluoro-methylphenyl)piperazin-1-yl]ethyl}cyclohexyl)-2-cyanoacetamide]	196
CC(=O)CN1CCC(CCN2CCN(c3cccc(S(C)(=O)=O)c3)CC2)CC1.Cl.Cl	260
O=C(N[C@H]1CC[C@H](CCN2CCN(c3cccc(C(F)(F)F)c3)CC2)CC1)C1=CCCC1 [Example 45, Cyclopent-1-enecarboxylic acid (4-{2-[4-(3-trifluoromethyl-phenyl)piperazin-1-yl]ethyl}cyclohexyl)amide]	175

Further lines, results first:

melting point [°C]	Structure (SMILES)
158	N#CCCCCC(=O)N[C@H]1CC[C@H](CCN2CCN(c3cc(C(F)(F)F)ccc3F)CC2)CC1 [Example 731]
198	N#CCC(=O)N[C@H]1CC[C@H](CCN2CCN(c3ccc(F)c(Cl)c3F)CC2)CC1 [Example 551, N-(4-{2-[4-(3-Chloro-2,4-difluorophenyl)piperazin-1-yl]ethyl}cyclohexyl)-2-cyanoacetamide]
207	N#CCC(=O)N[C@H]1CC[C@H](CCN2CCN(c3ccc(F)c(F)c3F)CC2)CC1 [Example 450, 2-Cyano-N-(4-{2-[4-(2,3,4-trifluorophenyl)piperazin-1-yl]ethyl}cyclohexyl)acetamide]
124	CCOCC(=O)N[C@H]1CC[C@H](CCN2CCN(c3ccc(C)c(F)c3)CC2)CC1 [Example 539, 2-Ethoxy-N-(4-{2-[4-(3-fluoro-4-methylphenyl)piperazin-1-yl]ethyl}cyclohexyl)acetamide]
142	O=C(N[C@H]1CC[C@H](CCN2CCN(c3cccc(C(F)(F)F)c3)CC2)CC1)C1=CCCCO1 [Example 562, 5,6-Dihydro-4H-pyran-2-carboxylic acid (4-{2-[4-(3-trifluoromethylphenyl)piperazin-1-yl]ethyl}cyclohexyl) amide]
191	N#Cc1cccc(N2CCN(CC[C@H]3CC[C@H](NC(=O)C4=CCCC4)CC3)CC2)c1 [Example 512, Cyclopent-1-enecarboxylic acid (4-{2-[4-(3-cyanophenyl)-piperazin-1-yl]ethyl}cyclohexyl) amide]
83	CCC(O)c1cccc(N2CCN(CCC3CCN(CC(C)=O)CC3)CC2)c1 (stereo not drawn) [Example 607, 1-[4-(2-{4-[3-(1-Hydroxypropyl)phenyl]piperazin-1-yl}ethyl)piperidin-1-yl]propan-2-one]
98	CSc1cccc(N2CCN(CC[C@H]3CC[C@H](NC(=O)CCC#N)CC3)CC2)c1 [Example 269, 3-Cyano-N-(4-{2-[4-(3-methylsulfanylphenyl)piperazin-1-yl]ethyl}cyclohexyl)-propanamide]
86	CC(=O)CN1CCC(CCN2CCN(c3cc(F)c(F)c(F)c3)CC2)CC1 [Example 697, 1-(4-{2-[4-(3,4,5-Trifluoro-phenyl)-piperazin-1-yl]ethyl}piperidin-1-yl)propan-2-one]
216	N#CCC(=O)N[C@H]1CC[C@H](CCN2CCN(c3csc4cc(C(F)(F)F)ccc34)CC2)CC1 [Example 173, 2-Cyano-N-(4-{2-[4-(6-trifluoromethylbenzo[b]thiophen-3-yl)piperazin-1-yl]ethyl}cyclohexyl)acetamide]
151	N#CCCCC(=O)N[C@H]1CC[C@H](CCN2CCN(c3ccc(Cl)c(Cl)c3)CC2)CC1 [Example 368, 4-Cyano-N-(4-{2-[4-(3,4-dichlorophenyl)piperazin-1-yl]ethyl}cyclohexyl)butanamide]
160	Cc1ccccc1N1CCN(CC[C@H]2CC[C@H](NC(=O)CCCC#N)CC2)CC1 [Example 428, 4-Cyano-N-{4-[2-(4-o-tolylpiperazin-1-yl)ethyl]cyclohexyl}butanamide]
184	Cc1ccc(C)c(N2CCN(CC[C@H]3CC[C@H](NC(=O)CC#N)CC3)CC2)c1 [Example 152, 2-Cyano-N-(4-{2-[4-(2,5-dimethylphenyl)piperazin-1-yl]ethyl}cyclohexyl)acetamide]
90	N#CCCCCC(=O)NC1CCC(CCN2CCN(c3cccc(C(F)(F)F)c3)CC2)CC1 (stereo not drawn) [Example 745, 5-Cyano-pentanoic acid (4-{2-[4-(3-trifluoromethylphenyl)-piperazin-1-yl]ethyl}cyclohexyl) amide]
176	N#CCCCC(=O)N[C@H]1CC[C@H](CCN2CCN(c3ccc(Cl)c(Cl)c3Cl)CC2)CC1 [Example 765, 4-Cyano-N-(4-{2-[4-(2,3,4-trichlorophenyl)piperazin-1-yl]ethyl}cyclohexyl)butanamide]
173	Cc1ccc(N2CCN(CC[C@H]3CC[C@H](NC(=O)CCCC#N)CC3)CC2)c(F)c1 [Example 485, 4-Cyano-N-(4-{2-[4-(2-fluoro-4-methylphenyl)piperazin-1-yl]ethyl}cyclohexyl)butanamide]
199	O=C(N[C@H]1CC[C@H](CCN2CCN(c3cc(C(F)(F)F)ccc3F)CC2)CC1)C1=CCCC1 [Example 705]
153	N#CCCC(=O)N[C@H]1CC[C@H](CCN2CCN(c3cccc(C(F)(F)F)c3F)CC2)CC1 [Example 214, 3-Cyano-N-(4-{2-[4-(2-fluoro-3-trifluoromethylphenyl)piperazin-1-yl]ethyl}cyclohexyl)propanamide trans/cis 95/5]
175	COCCCC(=O)N[C@H]1CC[C@H](CCN2CCN(c3cccc(C(F)(F)F)c3F)CC2)CC1 [Example 470, N-(4-{2-[4-(2-Fluoro-3-trifluoromethylphenyl)piperazin-1-yl]ethyl}cyclohexyl)-4-methoxybutanamide]
85	CC(=O)CN1CCC(CCN2CCN(c3cccc(C(C)=O)c3)CC2)CC1 [Example 603, 1-(4-{2-[4-(3-Acetylphenyl)-piperazin-1-yl]ethyl}piperidin-1-yl)propan-2-one]
151	CC(C)(C)c1nc(N2CCN(CC[C@H]3CC[C@H](NC(=O)CCC#N)CC3)CC2)cc(C(F)(F)F)n1 [Example 244]
205	COc1ccc(N2CCN(CC[C@H]3CC[C@H](NC(=O)C4=CCCC4)CC3)CC2)cc1 [Example 571, Cyclopent-1-enecarboxylic acid (4-{2-[4-(4-methoxyphenyl)-piperazin-1-yl]ethyl}cyclohexyl) amide]
78	CC(=O)CN1CCC(CCN2CCN(c3cccc(C(O)C(C)C)c3)CC2)CC1 (stereo not drawn) [Example 608, 1-[4-(2-{4-[3-(1-Hydroxy-2-methylpropyl)phenyl]piperazin-1-yl}ethyl)piperidin-1-yl]propan-2-one]
184	COCCCC(=O)N[C@H]1CC[C@H](CCN2CCN(c3cc(Cl)cc(Cl)c3)CC2)CC1 [Example 691, N-(4-{2-[4-(3,5-Dichlorophenyl)piperazin-1-yl]ethyl}cyclohexyl)-4-methoxybutanamide]
